Test results from article PMC3330251 (Journal of Medicinal Chemistry, 2012).

What was measured:
[1] = cited from earlier work
[2] = tested on: potassium ion channel coded by hERG; conditions: compound concentration as high as 300 µM; cited from earlier work
[3] = human liver microsomes; cited from earlier work
[4] = tested on: P. falciparum (erythrocytic stage, K1 strain); conditions: relative to the standard (chloroquine)
[5] = tested on: L. donovani (axenic amastigote stage, MHOM-ET-67/L82); conditions: relative to 1d

Compound: CCc1ccc(C(=O)NC(=O)c2ccccc2O)cc1 [Compound 1a, N-(4-Ethylbenzoyl)-2-hydroxybenzamide]
- protein binding in human plasma [1]: 99.9%
- hERG inhibition [2]: not inhibited
- intrinsic clearance / metabolism rate in HLM [3]: 282 µL/min/mg proteins

Compound: OC(Cn1cncn1)(Cn1cncn1)c1ccc(F)cc1F [fluconazole, reference compound]
- protein binding in human plasma [1]: 23.7%

Compound: O=C(NC(=O)c1ccccc1O)c1ccc2ccccc2c1 [Compound 1t, N-(2-Hydroxybenzoyl)-2-naphthamide]
- fold less active than the standard against malaria parasites [4]: 2 fold

Compound: O=C(NC(=O)c1ccccc1O)c1ccc(C(F)(F)F)cc1 [Compound 1g, 2-Hydroxy-N-(4-(trifluoromethyl)benzoyl)benzamide]
- times less potent than 1d against L. donovani [5]: 4 times
